Measurements as given in patent publication US9273040B2 (Merck Sharp & Dohme Corp., priority 2011, dated 2016).

Legend:
Format in all cases: cell-based
[1] = molecular target: T1, human Nav1.5 channels stably expressed in HEK 293 cells (Homo sapiens, UniProt Q14524); assay: IonWorks Quattro automated patch-clamp, sodium current, inactivated state block; details: selectivity over Nav1.5
T1 construct: expressed in transfected cells
Experimental: (§1) Compounds were tested on human Nav1.7 and Nav1.5 channels stably expressed in HEK 293 cells. […] Cells were sealed on a planar substrate using the Population Patch Plate (PPC) technology. Electrical access was obtained using both nystatin and amphotericin. A double-pulse protocol was used for the determination of IC50 values for inactivated state block. Nav1.7 and Nav1.5 expressing cells were voltage clamped at −100 mV and −110 mV, respectively. A depolarizing prepulse to −10 mV (Nav1.7) or −30 mV (Nav1.5) for 1000 ms followed by a 10 ms repolarization to −100 mV (Nav1.7) or −110 mV (Nav1.5) was given to generate fractional channel inactivation of ˜50%, followed by a 10 ms test pulse to −10 mV (Nav1.7) or −30 mV (Nav1.5) to measure peak current in control conditions and after compound addition. The following recording solutions were used (mM). External: 150 NaCl, 2 CaCl2, 5 KCl, 1 Mg Cl2, 10 HEPES, 12 Dextrose; internal: 120 CsF, 30 CsCl, 10 EGTA, 5 HEPES, 5 NaF, 2 MgCl2.
(§2) For all electrophysiology experiments, offline analysis was used to correct for current rundown and to determine percent inhibition as a function of drug concentration. IC50 values were determined by fitting to the Hill equation.

[2] = molecular target: T2, human Nav1.7 channels stably expressed in HEK 293 cells (Homo sapiens, UniProt Q15858); assay: as above; details: read-out: potency for the Nav 1.7 sodium ion channel (as measured by IonWorks)
T2 construct: expressed in transfected cells
T2 sequence (Q15858 whole entry): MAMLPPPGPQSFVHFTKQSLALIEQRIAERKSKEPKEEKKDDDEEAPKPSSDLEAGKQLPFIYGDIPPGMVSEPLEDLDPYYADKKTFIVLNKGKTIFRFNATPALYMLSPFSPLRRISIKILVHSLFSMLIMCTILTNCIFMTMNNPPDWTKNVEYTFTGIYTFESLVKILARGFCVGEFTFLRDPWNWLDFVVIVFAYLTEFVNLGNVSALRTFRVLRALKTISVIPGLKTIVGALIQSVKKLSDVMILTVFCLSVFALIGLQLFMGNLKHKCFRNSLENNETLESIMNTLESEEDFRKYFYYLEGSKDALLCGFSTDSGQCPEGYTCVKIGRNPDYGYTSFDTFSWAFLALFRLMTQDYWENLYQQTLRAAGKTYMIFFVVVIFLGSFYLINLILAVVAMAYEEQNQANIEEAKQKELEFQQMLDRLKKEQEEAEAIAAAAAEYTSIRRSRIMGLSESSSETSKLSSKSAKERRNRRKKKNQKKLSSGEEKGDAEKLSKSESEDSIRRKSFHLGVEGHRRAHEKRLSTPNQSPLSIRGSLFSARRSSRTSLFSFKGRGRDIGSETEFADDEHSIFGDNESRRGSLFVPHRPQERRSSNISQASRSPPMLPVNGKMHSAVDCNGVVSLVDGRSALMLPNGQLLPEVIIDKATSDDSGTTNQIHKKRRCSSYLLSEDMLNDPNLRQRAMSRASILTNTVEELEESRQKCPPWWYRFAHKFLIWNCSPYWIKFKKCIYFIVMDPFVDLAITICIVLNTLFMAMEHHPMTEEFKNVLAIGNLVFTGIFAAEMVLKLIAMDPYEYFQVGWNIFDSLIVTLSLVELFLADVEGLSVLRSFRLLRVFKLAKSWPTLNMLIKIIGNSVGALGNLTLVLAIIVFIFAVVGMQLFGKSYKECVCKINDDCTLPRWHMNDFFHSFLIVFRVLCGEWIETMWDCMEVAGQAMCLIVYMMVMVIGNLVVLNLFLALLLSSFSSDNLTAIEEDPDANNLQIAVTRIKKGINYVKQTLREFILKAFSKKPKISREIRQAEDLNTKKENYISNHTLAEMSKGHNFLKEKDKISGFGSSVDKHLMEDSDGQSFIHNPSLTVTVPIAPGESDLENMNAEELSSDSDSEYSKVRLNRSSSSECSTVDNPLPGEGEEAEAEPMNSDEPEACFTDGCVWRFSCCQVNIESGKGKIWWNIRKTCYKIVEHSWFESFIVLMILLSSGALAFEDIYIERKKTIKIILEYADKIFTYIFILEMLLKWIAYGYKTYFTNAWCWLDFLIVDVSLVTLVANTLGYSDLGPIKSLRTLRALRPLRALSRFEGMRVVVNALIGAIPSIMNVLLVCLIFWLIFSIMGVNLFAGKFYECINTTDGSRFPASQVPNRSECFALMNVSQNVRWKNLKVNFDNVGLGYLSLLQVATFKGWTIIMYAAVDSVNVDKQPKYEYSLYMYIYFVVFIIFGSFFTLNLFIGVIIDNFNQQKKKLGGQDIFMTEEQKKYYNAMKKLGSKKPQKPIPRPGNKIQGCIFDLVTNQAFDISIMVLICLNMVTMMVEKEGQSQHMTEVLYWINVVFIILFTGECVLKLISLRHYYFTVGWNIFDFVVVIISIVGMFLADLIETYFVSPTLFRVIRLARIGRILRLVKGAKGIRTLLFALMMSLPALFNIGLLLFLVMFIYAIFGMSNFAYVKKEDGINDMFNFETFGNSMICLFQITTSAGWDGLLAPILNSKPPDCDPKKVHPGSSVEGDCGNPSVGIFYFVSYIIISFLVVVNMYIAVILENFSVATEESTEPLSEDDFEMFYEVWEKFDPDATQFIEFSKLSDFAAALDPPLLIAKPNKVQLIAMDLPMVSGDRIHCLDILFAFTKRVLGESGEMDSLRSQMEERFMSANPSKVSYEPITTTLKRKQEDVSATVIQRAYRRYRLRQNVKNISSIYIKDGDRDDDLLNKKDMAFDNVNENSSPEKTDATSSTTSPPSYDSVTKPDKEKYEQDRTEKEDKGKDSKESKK
Experimental: as §1, §2

[3] = molecular target: T1, human Nav1.5 channels stably expressed in HEK 293 cells; assay: PatchXpress 7000 automated patch-clamp, sodium current; details: selectivity over Nav1.5
Method in brief: (§3)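 IC50 values came from Hill-equation fits of rundown-corrected inhibition. PatchXpress recordings at 22° C held cells 20 mV negative to V0.5 inact and applied 10 Hz trains of 30 ms steps to −20 mV (Nav1.7) or an 8000 ms prepulse 7 mV positive to V0.5 inact. […]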

[4] = molecular target: T2, human Nav1.7 channels stably expressed in HEK 293 cells; assay: as above; details: 22° C., read-out: potency for the Nav 1.7 sodium ion channel (as measured by PatchXpress)
Method in brief: as §3

T1 sequence (Q14524 whole entry): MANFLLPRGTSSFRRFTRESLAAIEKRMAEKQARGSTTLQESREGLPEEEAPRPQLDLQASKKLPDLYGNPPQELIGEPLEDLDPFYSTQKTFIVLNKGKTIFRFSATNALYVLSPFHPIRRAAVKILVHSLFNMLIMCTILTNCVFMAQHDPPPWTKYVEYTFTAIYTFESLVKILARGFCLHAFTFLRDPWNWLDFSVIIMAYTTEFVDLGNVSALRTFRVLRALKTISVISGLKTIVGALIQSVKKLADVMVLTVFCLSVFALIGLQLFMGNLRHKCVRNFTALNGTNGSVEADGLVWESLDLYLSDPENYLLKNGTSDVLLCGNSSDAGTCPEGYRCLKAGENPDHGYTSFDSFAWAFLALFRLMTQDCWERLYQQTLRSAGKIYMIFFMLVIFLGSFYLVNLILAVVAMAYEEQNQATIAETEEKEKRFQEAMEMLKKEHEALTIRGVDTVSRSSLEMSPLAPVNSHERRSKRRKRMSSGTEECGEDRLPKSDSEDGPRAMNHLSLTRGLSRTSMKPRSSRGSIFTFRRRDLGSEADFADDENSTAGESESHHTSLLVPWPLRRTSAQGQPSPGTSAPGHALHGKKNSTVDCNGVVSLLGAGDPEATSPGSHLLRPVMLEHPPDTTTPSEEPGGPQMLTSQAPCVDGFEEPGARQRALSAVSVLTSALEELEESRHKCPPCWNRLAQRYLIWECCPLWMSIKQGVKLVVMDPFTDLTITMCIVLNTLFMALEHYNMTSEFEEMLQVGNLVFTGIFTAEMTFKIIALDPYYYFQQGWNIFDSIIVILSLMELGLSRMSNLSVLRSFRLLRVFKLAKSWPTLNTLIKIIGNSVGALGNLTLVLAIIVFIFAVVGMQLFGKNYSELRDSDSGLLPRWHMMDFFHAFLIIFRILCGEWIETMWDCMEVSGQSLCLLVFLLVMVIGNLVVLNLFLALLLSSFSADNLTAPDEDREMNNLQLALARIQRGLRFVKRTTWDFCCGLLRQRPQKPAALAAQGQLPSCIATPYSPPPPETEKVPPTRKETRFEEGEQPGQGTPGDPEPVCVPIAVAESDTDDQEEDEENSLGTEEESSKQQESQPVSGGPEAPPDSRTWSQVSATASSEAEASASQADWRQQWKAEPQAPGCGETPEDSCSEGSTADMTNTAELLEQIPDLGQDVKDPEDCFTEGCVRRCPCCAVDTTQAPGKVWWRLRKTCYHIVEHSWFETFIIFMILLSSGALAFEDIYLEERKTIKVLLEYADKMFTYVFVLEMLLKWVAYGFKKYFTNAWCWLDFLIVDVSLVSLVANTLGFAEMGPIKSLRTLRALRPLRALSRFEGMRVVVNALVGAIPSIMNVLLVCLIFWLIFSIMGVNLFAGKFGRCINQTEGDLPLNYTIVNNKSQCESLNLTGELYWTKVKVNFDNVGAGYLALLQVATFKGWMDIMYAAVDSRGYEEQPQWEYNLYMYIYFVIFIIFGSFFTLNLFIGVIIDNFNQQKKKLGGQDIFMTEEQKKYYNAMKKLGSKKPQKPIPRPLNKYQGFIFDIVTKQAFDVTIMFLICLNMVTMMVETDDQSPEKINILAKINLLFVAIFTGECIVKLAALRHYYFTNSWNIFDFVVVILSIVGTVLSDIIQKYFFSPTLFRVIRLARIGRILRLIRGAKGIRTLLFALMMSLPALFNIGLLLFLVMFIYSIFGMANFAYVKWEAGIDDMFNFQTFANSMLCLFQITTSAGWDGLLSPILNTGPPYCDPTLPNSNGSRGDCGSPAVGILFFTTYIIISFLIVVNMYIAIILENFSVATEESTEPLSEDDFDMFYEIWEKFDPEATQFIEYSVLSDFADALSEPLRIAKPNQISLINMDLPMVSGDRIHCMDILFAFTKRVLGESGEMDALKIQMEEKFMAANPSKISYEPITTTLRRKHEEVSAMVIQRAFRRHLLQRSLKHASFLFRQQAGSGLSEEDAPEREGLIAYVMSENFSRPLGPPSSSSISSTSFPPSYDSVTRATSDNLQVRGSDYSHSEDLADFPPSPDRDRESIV

For `CCN1CCc2cccc(Cn3c(=O)oc4cc(S(=O)(=O)Nc5ncns5)ccc43)c2C1` [Compound 6-2, 3-[(2-ethyl-1,2,3,4-tetrahydroisoquinolin-8-yl)methyl]-2-oxo-N-1,2,4-thiadiazol-5-yl-2,3-dihydro-1,3-benzoxazole-6-sulfonamide], the “ratio of Nav 1.5:Nav 1.7 potency, determined by IonWorks measurement” value (“ratio … by IonWorks measurement” for short) [1] was > 98, the IC50 [2] was 336 nM and the “ratio of Nav 1.5:Nav 1.7 potency, determined by PatchXpress measurement” value (from here on “ratio … by PatchXpress measurement”) [3] was 71. The IC50 [4] was 234 nM.
With `O=c1oc2cc(S(=O)(=O)Nc3ncns3)ccc2n1Cc1ccc(Cl)cc1` [Compound 1-13, 3-(4-chlorobenzyl)-2-oxo-N-1,2,4-thiadiazol-5-yl-2,3-dihydro-1,3-benzoxazole-6-sulfonamide] the “ratio … by IonWorks measurement” value [1] was > 34, the IC50 [2] was 976 nM and the “ratio … by PatchXpress measurement” value [3] was > 34. The IC50 [4] was 976 nM.
In the case of `C[C@H](c1cccc2c1CNCC2)n1c(=O)oc2cc(S(=O)(=O)Nc3ncns3)ccc21` [Compound 4-4, 2-Oxo-3-[(1R)-1-(1,2,3,4-tetrahydroisoquinolin-8-yl)ethyl]-N-(1,2,4-thiadiazol-5-yl)-2,3-dihydro-1,3-benzoxazole-6-sulfonamide], the “ratio … by IonWorks measurement” value [1] is reported as 4494, the IC50 [2] is reported as 5 nM and the “ratio … by PatchXpress measurement” value [3] is reported as > 1153. The IC50 [4] was 26 nM.
`CC(CCc1ccccc1)n1c(=O)oc2cc(S(=O)(=O)Nc3ncns3)ccc21` (stereo not drawn) [Compound 4-11, 3-(1-methyl-3-phenylpropyl)-2-oxo-N-1,2,4-thiadiazol-5-yl-2,3-dihydro-1,3-benzoxazole-6-sulfonamide] was tested, and the “ratio … by IonWorks measurement” value [1] was 9, the IC50 [2] was 1730 nM and the “ratio … by PatchXpress measurement” value [3] was > 17. For the same compound, the IC50 [4] was 1770 nM.
With `O=c1oc2cc(S(=O)(=O)Nc3ncns3)c(F)cc2n1C(c1ccccc1)C1CC1` (stereo not drawn) [Compound 13-5, 3-[cyclopropyl(phenyl)methyl]-5-fluoro-2-oxo-N-1,2,4-thiadiazol-5-yl-2,3-dihydro-1,3-benzoxazole-6-sulfonamide] the “ratio … by IonWorks measurement” value [1] was > 300, the IC50 [2] was 110 nM and the “ratio … by PatchXpress measurement” value [3] was > 30. It also gave an IC50 [4] of 145 nM.
`NC/C=C/c1cc(Cl)ccc1Cn1c(=O)oc2cc(S(=O)(=O)Nc3ncns3)ccc21` [Compound 3-11, 3-{2-[(1E)-3-aminoprop-1-en-1-yl]-4-chlorobenzyl}-2-oxo-N-1,2,4-thiadiazol-5-yl-2,3-dihydro-1,3-benzoxazole-6-sulfonamide] was tested, and the “ratio … by IonWorks measurement” value [1] was > 56, the IC50 [2] was 596 nM and the “ratio … by PatchXpress measurement” value [3] was 87. The IC50 [4] was 219 nM.
`O=c1oc2cc(S(=O)(=O)Nc3ncns3)ccc2n1Cc1ccccc1C1=CCNCCC1` [Compound 3-5, 2-oxo-3-[2-(2,5,6,7-tetrahydro-1H-azepin-4-yl)benzyl]-N-1,2,4-thiadiazol-5-yl-2,3-dihydro-1,3-benzoxazole-6-sulfonamide] was tested, and the “ratio … by IonWorks measurement” value [1] was > 133, the IC50 [2] was 248 nM and the “ratio … by PatchXpress measurement” value [3] was > 271. It also gave an IC50 [4] of 111 nM.
`O=c1oc2cc(S(=O)(=O)Nc3ncns3)ccc2n1Cc1ccccc1-c1cccc2c1CNCC2` [Compound 3-4, 2-oxo-3-[2-(1,2,3,4-tetrahydroisoquinolin-8-yl)benzyl]-N-1,2,4-thiadiazol-5-yl-2,3-dihydro-1,3-benzoxazole-6-sulfonamide] was tested, and the “ratio … by IonWorks measurement” value [1] was > 209, the IC50 [2] was 158 nM and the “ratio … by PatchXpress measurement” value [3] was > 272. The IC50 [4] was 110 nM.
In the case of `CC(c1ccccc1C(F)(F)F)n1c(=O)oc2cc(S(=O)(=O)Nc3ncns3)ccc21` (stereo not drawn) [Compound 4-9, 2-oxo-N-1,2,4-thiadiazol-5-yl-3-{1-[2-(trifluoromethyl)phenyl]ethyl}-2,3-dihydro-1,3-benzoxazole-6-sulfonamide], the “ratio … by IonWorks measurement” value [1] is reported as 22, the IC50 [2] is reported as 1140 nM and the “ratio … by PatchXpress measurement” value [3] is reported as > 11. For the same compound, the IC50 [4] was 2640 nM.
For `O=c1oc2cc(S(=O)(=O)Nc3ncns3)ccc2n1Cc1ccccc1C1=CC2CCC(C1)N2` (stereo not drawn) [Compound 3-7, 3-[2-(8-azabicyclo[3.2.1]oct-2-en-3-yl)benzyl]-2-oxo-N-1,2,4-thiadiazol-5-yl-2,3-dihydro-1,3-benzoxazole-6-sulfonamide], the “ratio … by IonWorks measurement” value [1] was > 113, the IC50 [2] was 292 nM and the “ratio … by PatchXpress measurement” value [3] was > 219. For the same compound, the IC50 [4] was 137 nM.
With `CC(=O)N1CCc2cccc(Cn3c(=O)oc4cc(S(=O)(=O)Nc5ncns5)ccc43)c2C1` [Compound 9-1, 3-[(2-Acetyl-1,2,3,4-tetrahydroisoquinolin-8-yl)methyl]-2-oxo-N-(1,2,4-thiadiazol-5-yl)-2,3-dihydro-1,3-benzoxazole-6-sulfonamide] the “ratio … by IonWorks measurement” value [1] was 35, the IC50 [2] was 638 nM and the “ratio … by PatchXpress measurement” value [3] was > 57. The IC50 [4] was 530 nM.
In the case of `NC/C=C/c1ccccc1Cn1c(=O)oc2cc(S(=O)(=O)Nc3ncns3)c(F)cc21` [Compound 12-3, 3-{2-[(1E)-3-Aminoprop-1-en-1-yl]benzyl}-5-fluoro-2-oxo-N-(1,2,4-thiadiazol-5-yl)-2,3-dihydro-1,3-benzoxazole-6-sulfonamide], the “ratio … by IonWorks measurement” value [1] is reported as 6084, the IC50 [2] is reported as 5 nM and the “ratio … by PatchXpress measurement” value [3] is reported as 1096. It also gave an IC50 [4] of 27 nM.
With `O=c1oc2cc(S(=O)(=O)Nc3ncns3)ccc2n1Cc1cccc2c1CN(CC1CC1)CC2` [Compound 6-4, 3-{[2-(cyclopropylmethyl)-1,2,3,4-tetrahydroisoquinolin-8-yl]methyl}-2-oxo-N-1,2,4-thiadiazol-5-yl-2,3-dihydro-1,3-benzoxazole-6-sulfonamide] the “ratio … by IonWorks measurement” value [1] was 54, the IC50 [2] was 464 nM and the “ratio … by PatchXpress measurement” value [3] was 37. It also gave an IC50 [4] of 626 nM.
In the case of `C[C@H](c1ccccc1)n1c(=O)oc2cc(S(=O)(=O)Nc3ncns3)c(F)cc21` [Compound 13-3, 5-fluoro-2-oxo-3-[(1R)-1-phenylethyl]-N-1,2,4-thiadiazol-5-yl-2,3-dihydro-1,3-benzoxazole-6-sulfonamide], the “ratio … by IonWorks measurement” value [1] is reported as 418, the IC50 [2] is reported as 21 nM and the “ratio … by PatchXpress measurement” value [3] is reported as 162. For the same compound, the IC50 [4] was 42 nM.
With `O=C(C1CC1)N1CCc2cccc(Cn3c(=O)oc4cc(S(=O)(=O)Nc5ncns5)ccc43)c2C1` [Compound 10-1, 3-{[2-(Cyclopropylcarbonyl)-1,2,3,4-tetrahydroisoquinolin-8-yl]methyl}-2-oxo-N-1,2,4-thiadiazol-5-yl-2,3-dihydro-1,3-benzoxazole-6-sulfonamide] the “ratio … by IonWorks measurement” value [1] was > 50, the IC50 [2] was 666 nM and the “ratio … by PatchXpress measurement” value [3] was 14. The IC50 [4] was 598 nM.
For `CS(=O)(=O)N1CCc2cccc(Cn3c(=O)oc4cc(S(=O)(=O)Nc5ncns5)ccc43)c2C1` [Compound 8-4, 3-{[2-(Methylsulfonyl)-1,2,3,4-tetrahydroisoquinolin-8-yl]methyl}-2-oxo-N-(1,2,4-thiadiazol-5-yl)-2,3-dihydro-1,3-benzoxazole-6-sulfonamide], the “ratio … by IonWorks measurement” value [1] was 20, the IC50 [2] was 526 nM and the “ratio … by PatchXpress measurement” value [3] was > 1180. For the same compound, the IC50 [4] was 254 nM.
In the case of `C[C@H](c1cccc2c1CNCC2)n1c(=O)oc2cc(S(=O)(=O)Nc3ncns3)c(F)cc21` [Compound 13-2, 5-Fluoro-2-oxo-3-[(1R)-1-(1,2,3,4-tetrahydroisoquinolin-8-yl)ethyl]-N-(1,2,4-thiadiazol-5-yl)-2,3-dihydro-1,3-benzoxazole-6-sulfonamide], the “ratio … by IonWorks measurement” value [1] is reported as 2604, the IC50 [2] is reported as 4 nM and the “ratio … by PatchXpress measurement” value [3] is reported as 357. For the same compound, the IC50 [4] was 26 nM.
For `O=c1oc2cc(S(=O)(=O)Nc3ncns3)ccc2n1Cc1ccccc1-c1ccccc1N1CCNCC1` [Compound 3-9, 2-oxo-3-[(2′-piperazin-1-ylbiphenyl-2-yl)methyl]-N-1,2,4-thiadiazol-5-yl-2,3-dihydro-1,3-benzoxazole-6-sulfonamide], the “ratio … by IonWorks measurement” value [1] was > 59 and the IC50 [2] was 563 nM.
With `C[C@@H](c1ccccc1)n1c(=O)oc2cc(S(=O)(=O)Nc3ncns3)ccc21` [Compound 4-8, 2-oxo-3-[(1S)-1-phenylethyl]-N-1,2,4-thiadiazol-5-yl-2,3-dihydro-1,3-benzoxazole-6-sulfonamide] the “ratio … by IonWorks measurement” value [1] was > 22 and the IC50 [2] was 1480 nM.
